Experimental data as given in ChEMBL document CHEMBL1149856, “Insulinomimetic effect of kaempferol 3-neohesperidoside on the rat soleus muscle” (2008).
Activity calls are given as the source filed them. The calls are words filed in the database; no cut-off is given here.

How the values were obtained:
[1] = test system: Soleus muscle; experiment: Inhibition of 14C-glucose uptake in Wistar rat soleus muscle at 1 nM in presence of LY-294002; format: functional, tissue-based
[2] = test system: Soleus muscle; experiment: Inhibition of 14C-glucose uptake in Wistar rat soleus muscle at 1 nM in presence of RO318220; format: functional, tissue-based
[3] = test system: Soleus muscle; experiment: Stimulation of 14C-glucose uptake in Wistar rat soleus muscle at 1 nM in presence of PD-98059; format: functional, tissue-based
[4] = test system: Soleus muscle; experiment: Stimulation of 14C-glucose uptake in Wistar rat soleus muscle at 1 nM in presence of cycloheximide; format: functional, tissue-based
[5] = test system: Rattus norvegicus; experiment: Increase in glycogen level in diabetic Wistar rat soleus muscle at 100 mg/kg after 24 hrs; format: functional
[6] = Stimulation of 14C-glucose uptake in Wistar rat soleus muscle at 1 nM
[7] = Stimulation of 14C-glucose uptake in Wistar rat soleus muscle at 100 nM

## C[C@H]1O[C@H](O[C@H]2[C@H](Oc3c(-c4ccc(O)cc4)oc4cc(O)cc(O)c4c3=O)O[C@H](CO)[C@@H](O)[C@@H]2O)[C@@H](O)[C@@H](O)[C@@H]1O
[1]
  Activity: Active
[2]
  Activity: Active
[3]
  Activity: Active
[4]
  Activity: Active
[5]
  Activity: 380%
[6]
  Activity: 35%
[7]
  Activity: 21%
